Measured values: US5164185A, “Pharmaceutical and cosmetic depigmentation compositions with a caffeic acid base” (priority 1989, dated 1992)

Assays:
melanin biosynthesis = assay: depigmenting action (studies on substances used singly or in combination); settings: in words
Text: In these latter, at least one of the active ingredients may be liposomes.

[1] = tested on: fungus-derived tyrosinase; assay: in vitro tyrosinase inhibition, dopachrome formation by visible spectrophotometry (475 nm); assay type: biochemical; settings: in words
Text: The efficacy of the various combination according to the invention have been studied in vitro by measuring out, using visible spectrophotometry (475 nm), the quantity of dopachrome formed during the chain of tyrosine-oxidation reactions. These oxidation reactions are catalyzed in vitro using fungus-derived tyrosinase in the presence of a co-substrate (for example, a small quantity of L-dopa) in order to trigger the hydroxylation reaction of L-tyrosine into L-dopa, this latter being then oxidized by catalysis into dopaquinone, then into dopachrome, an intermediate product formed before the non-enzymatic oxidation reactions leading to melanin formation.
Accordingly, the concentration of dopachrome formed over time is monitored in the presence of various inhibitors of tyrosinasic activity.
The concentrations of inhibitors are expressed as molar percents in relation to the concentration of tyrosine present in the reactive medium.
The inhibitory effect may be expressed, in relation to the control curve (absence of inhibitor) by lowering of the quantity of dopachrome formed and/or by a slowing of dopachrome-formation kinetics. […]

melanocytes = settings: in words, prior art; cited from earlier work

O=C(O)/C=C/c1ccc(O)c(O)c1 [caffeic acid]
depigmenting action (melanin biosynthesis): especially interesting depigmenting action
inhibition of tyrosinasic activity leading to limited formation of dopachrome [1]: inhibition of tyrosinasic activity

Oc1ccc(O)cc1 [hydroquinone]
irritation and cytotoxicity for melanocytes (melanocytes): especially irritating and cytotoxic for melanocytes
